What was measured:
K2P2.1 (TREK-1) = biological target: T1, K2P2.1 (TREK-1) (Mus musculus, UniProt P97438); test: Two-electrode voltage clamp of Xenopus oocytes expressing K2P2.1 (TREK-1); assay type: cell-based, Murine; conditions: Xenopus oocytes; for effect on K2P2.1 (TREK-1) function / activity (in words): two-electrode voltage clamp
T1 construct: expressed in transfected cells; host or cells: Xenopus oocytes (cRNA injection, pGEMHE/pMO)
T1 sequence (P97438 1-411 isoform P97438-2): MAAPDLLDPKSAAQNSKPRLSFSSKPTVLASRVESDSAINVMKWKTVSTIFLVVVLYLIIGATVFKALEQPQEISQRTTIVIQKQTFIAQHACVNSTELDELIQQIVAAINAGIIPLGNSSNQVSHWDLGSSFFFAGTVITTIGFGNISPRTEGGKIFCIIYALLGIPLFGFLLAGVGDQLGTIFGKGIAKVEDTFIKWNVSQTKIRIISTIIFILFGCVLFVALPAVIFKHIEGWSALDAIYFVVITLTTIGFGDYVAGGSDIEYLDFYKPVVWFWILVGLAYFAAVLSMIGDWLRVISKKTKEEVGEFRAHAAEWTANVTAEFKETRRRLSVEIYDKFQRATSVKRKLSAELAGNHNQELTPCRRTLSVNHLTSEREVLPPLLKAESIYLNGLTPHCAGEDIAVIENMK
Description: (§1) Two-electrode voltage clamp recordings were performed from defolliculated stage V-VI Xenopus oocytes 24-48 hours after injection with 0.015-6.0 ng cRNA, using microelectrodes (0.3-3.0 MΩ) filled with 3M KCl. […] Recording solutions (mM): 2K (96 NaCl, 2 KCl, 1.8 CaCl2, 2 MgCl2), 90K (90 KCl, 8 NaCl, 1.8 CaCl2, 2 MgCl2), were buffered 5 mM HEPES pH 7.4. For K2P recordings, currents we elicited by a 1 second long ramp from −150 to +50 mV from a holding potential of −80 mV (2K), or −100 to +50 mV from a holding potential of 0 mV (90K). For KCNQ2 recordings, currents were elicited by a step protocol from −120 to 60 mV, in 20 mV increments, from a holding potential of −80 mV. […] Currents were elicited by a 1 second long ramp from −150 to +50 mV from a holding potential of −80 mV.

TREK-1 = biological target: T2, TREK-1 (Mus musculus, UniProt P97438); test: Modulation of TREK-1 by select compounds (agonist activity), Table 3; assay type: cell-based, Murine; conditions: for EC50: agonist activity on TREK-1
T2 construct: expressed in transfected cells
T2 sequence (P97438 1-411 isoform P97438-2): T1 sequence (P97438 1-411 isoform P97438-2)
Description: as §1

comments (comparison with ML67-33 / ML67-142, dose-response remark) (TREK-1) | EC50 (TREK-1) [µM] | % activity at 50 μM (TREK-1) [%] | Compound | further results
– | – | – | O=C(O)CCn1c2ccccc2c2ccccc21 [ML67-2, 3-carbazol-9-ylpropanoic acid] | Emax (fold) at 500 μM (K2P2.1 (TREK-1); at 500 μM): 1.3 ± 0.1 at 500 μM fold; effect on K2P2.1 (TREK-1) function / activity (in words) (K2P2.1 (TREK-1)): reduced activity
No plateau | > 500 | – | O=C(O)CCn1c2ccccc2c2cc(I)ccc21 [ML67-14, 3-(3-iodocarbazol-9-yl)propanoic acid] | –
– | – | – | O=C(O)CCCn1c2ccc(Cl)cc2c2cc(Cl)ccc21 [ML67-15, 4-(3,6-dichlorocarbazol-9-yl) butanoic acid] | Emax (fold) at 200 μM (K2P2.1 (TREK-1); at 200 μM): 4.7 ± 0.9 at 200 μM fold; effect on K2P2.1 (TREK-1) function / activity (in words) (K2P2.1 (TREK-1)): did not significantly improve potency
No plateau | ~200 | – | O=C(O)CCN1c2ccc(Cl)cc2Sc2cc(Cl)ccc21 [ML67-26, 3-(3,7-dichloro-phenothiazin-10-yl)propanoic acid] | –
– | < 125 | – | Clc1ccc2c(c1)c1cc(Cl)ccc1n2[C@H]1C[C@H](c2nnn[nH]2)C1 [ML67-30, 3,6-dichloro-9-[3-(1H-tetrazol-5-yl)cyclobutyl] carbazole (trans)] | –
Not better than ML67-33 | > 38.5 | 13.4 | Brc1ccc2c3ccc(Br)cc3n(CCc3nnn[nH]3)c2c1 [ML67-34, 2,7-dibromo-9-[2-(1H-tetrazol-5-yl)ethyl]carbazole] | –
Not better than ML67-33 | > 38.5 | 17.8 | c1ccc2c(c1)Oc1ccccc1N2CCc1nnn[nH]1 [ML67-35, 10-[2-(1H-tetrazol-5-yl)ethyl] phenoxazine] | –
– | > 38.5 | – | c1ccc2c(c1)Sc1ccccc1N2CCc1nnn[nH]1 [ML67-36, 10-[2-(1H-tetrazol-5-yl)ethyl] phenothiazine] | –
Not better than ML67-33 | > 38.5 | 96 | Brc1ccc2c(c1)Sc1cc(Br)ccc1N2CCc1nnn[nH]1 [ML67-37, 3,7-dibromo-10-[2-(1H-tetrazol-5-yl)ethyl] phenothiazine] | –
Not better than ML67-33 | > 38.5 | 68.8 | Brc1ccc2c(c1)Oc1cc(Br)ccc1N2CCc1nnn[nH]1 [ML67-38, 3,7-dibromo-10-[2-(1H-tetrazol-5-yl)ethyl] phenoxazine] | –
Not better than ML67-33 | > 38.5 | 29.2 | CC1(C)c2ccccc2N(CCc2nnn[nH]2)c2ccccc21 [ML67-39, 9,9-dimethyl-10-[2-(1H-tetrazol-5-yl)ethyl]acridine] | –
– | – | 100 | CC1(C)c2cc(Br)ccc2N(CCc2nnn[nH]2)c2ccc(Br)cc21 [ML67-137, 2,7-dibromo-9,9-dimethyl-10-[2-(1H-tetrazol-5-yl)ethyl]acridine] | Emax (fold) at 100 μM (K2P2.1 (TREK-1); at 100 μM (FIG. 4, 7 legends), marked ** in Table 1, footnote not given): 9.2 ± 1.4** fold; effect on K2P2.1 (TREK-1) function / activity (in words) (K2P2.1 (TREK-1)): did not significantly improve activity; % activity at 10 μM (TREK-1; 10 μM): 80%
– | 18.3 | – | Clc1ccc2c(c1)C1(CCCC1)c1cc(Cl)ccc1N2CCc1nnn[nH]1 [ML67-138, 2,7-dichloro-10-[2-(1H-tetrazol-5-yl)ethyl]spiro [acridine-9,1′-cyclopentane]] | –
Not better than ML67-33 | > 38.5 | 60.7 | Clc1ccc2c(c1)C1(CCOCC1)c1cc(Cl)ccc1N2CCc1nnn[nH]1 [ML67-139, 2,7-dichloro-10-[2-(1H-yl)ethyl]spiro [acridine-9,4′-oxane]] | –
Not better than ML67-33 | > 38.5 | 57.7 | O=C(O)CCN1c2ccc(Cl)cc2C2(CCCCC2)c2cccc(Cl)c21 [ML67-140, 3-(2,5-dichlorospiro [acridine-9,1′-cyclohexane]-10-yl)propanoic acid] | –
– | 8.6 | – | Clc1ccc2c(c1)C1(CCCCC1)c1cc(Cl)ccc1N2CCc1nnn[nH]1 [ML67-142, 2,7-dichloro-10-[2-(1H-tetrazol-5-yl)ethyl]spiro [acridine-9,1′-cyclohexane]] | –
Not better than ML67-33 | > 38.5 | 32.3 | c1ccc2c(c1)N(CCc1nnn[nH]1)c1ccccc1C21CCCCC1 [ML67-144, 10-[2-(1H-tetrazol-5-yl)ethyl]spiro [acridine-9,1′-cyclohexane]] | –
Not better than ML67-33 | > 38.5 | 25.9 | OCc1ccc2c(c1)C1(CCCCC1)c1cc(Br)ccc1N2CCc1nnn[nH]1 [ML67-146, 2-bromo-10-[2-(1H-1,2,3,4-tetrazol-5-yl)ethyl]-10H-spiro[acridine-9,1′-cyclohexane]-7-ylmethanol] | –
Not better than ML67-33 | > 38.5 | 84.1 | O=C(O)CCN1c2ccc(Br)cc2C2(CCCCC2)c2cc(Br)ccc21 [ML67-147, 3-{2,7-dibromo-10H-spiro[acridine-9,1′-cyclohexane]-10-yl}propanoic acid] | –
Not better than ML67-33 | > 38.5 | – | C#Cc1ccc(S(=O)(=O)NC(=O)CCN2c3ccc(Br)cc3C3(CCCCC3)c3cc(Br)ccc32)cc1 [ML67-150, 3-{2,7-dibromo-10H-spiro[acridine-9,1′-cyclohexane]-10-yl}-N-(4-ethynyl-benzenesulfonyl) propanamide] | –
No better than ML67-33 | > 38.5 | 45 | O=C(O)CCC(CN1c2ccc(Br)cc2C2(CCCCC2)c2cc(Br)ccc21)C(=O)O (stereo not shown) [ML67-152, 2-{2,7-dibromo-10H-spiro[acridine-9,1′-cyclohexane]-10-ylmethyl} pentanedioic acid] | –

Compound | comments (comparison with ML67-33 / ML67-142, dose-response remark) (TREK-1) | EC50 (TREK-1) [µM] | % activity at 50 μM (TREK-1) [%] | further results
Clc1ccc2c(c1)c1cc(Cl)ccc1n2CCc1nnn[nH]1 [ML67-18, 3,6-dichloro-9-[2-(1H-tetrazol-5-yl)ethyl]carbazole] | – | 125 | – | Emax (fold) (K2P2.1 (TREK-1); fold over basal current, no concentration stated): ~18 fold
O=C(O)CCN1c2ccc(Cl)cc2C2(CCCCC2)c2cc(Cl)ccc21 [ML67-141, 3-(2,7-dichlorospiro [acridine-9,1′-cyclohexane]-10-yl)propanoic acid] | Better than ML67-33; not better than (ML67-142) | 8.6 to 38.5 | – | –
Clc1ccc2c(c1)C1(CCCCC1)c1cccc(Cl)c1N2CCc1nnn[nH]1 [ML67-143, 2,5-dichloro-10-[2-(1H-tetrazol-5-yl)ethyl]spiro [acridine-9,1′-cyclohexane]] | Better than ML67-33; Not better than (ML67-142) | 8.6 to 38.5 | – | –
Brc1ccc2c(c1)C1(CCCCC1)c1cc(Br)ccc1N2CCc1nnn[nH]1 [ML67-145, 2,7-dibromo-10-[2-(1H-1,2,3,4-tetrazol-5-yl)ethyl]-10H-spiro[acridine-9,1′-cyclohexane]] | Better than ML67-33; Not better than (ML67-142) | 8.6 to 38.5 | – | –
CS(=O)(=O)NC(=O)CCN1c2ccc(Br)cc2C2(CCCCC2)c2cc(Br)ccc21 [ML67-148, 3-{2,7-dibromo-10H-spiro[acridine-9,1′-cyclohexane]-10-yl}-N-methanesulfonyl-propanamide] | Better than ML67-33; Not better than (ML67-142) | 8.6 to 38.5 | – | –
